Source: article PMC12210654, “Palazestrant, a novel oral Complete Estrogen Receptor Antagonist (CERAN) and Selective Estrogen Receptor Degrader (SERD), in patients with ER+/HER2− advanced or metastatic breast cancer: phase 1/2 study results” (Breast Cancer Research : BCR, 2025)
Several values for one entry are separate records, joined by “and”; a condition that tells them apart may be missing. Equal entries are not always repeated. Entries after “also recorded” stand apart in the source; their conditions may differ.

Assay: Safety: adverse events (NCI CTCAE v5.0), electrocardiograms
Assay type: in vivo, human
Method: Safety assessments included the monitoring of AEs, clinical laboratory parameters, electrocardiograms, and vital signs. AE severity was graded according to the National Cancer Institute Common Terminology Criteria for Adverse Events (version 5.0).
All DLT analyses (phase 1a) were performed in patients enrolled in the study during cycle 1 and who either received 75% of the planned palazestrant doses or experienced a DLT during cycle 1. All PK analyses were performed in patients who received at least 1 dose of palazestrant and had adequate postbaseline PK samples for characterization of PK parameters. All safety analyses were performed and PFS assessed in patients who received at least 1 dose of palazestrant. Clinical response (CR or PR) was assessed in patients who received at least 1 cycle of palazestrant, had measurable disease at baseline, and had at least 1 postbaseline tumor assessment. CBR was assessed in patients who received at least 1 cycle of palazestrant, had at least 1 postbaseline tumor assessment, and started their first dose at least 24 weeks before data cutoff. Patients who discontinued study treatment without radiographic progression within 24 weeks from the first dose were not included in the CBR analysis. PK parameters were estimated using conventional noncompartmental methods. For CBR, estimates were accompanied by 2-sided 95% confidence intervals (95% CIs). For PFS, Kaplan–Meier analyses were used to determine medians, event-free rates, and 95% CIs. For all other outcomes, categorical data were analyzed using frequencies and percentages, and continuous data were analyzed using means (standard deviation) or medians (range), as appropriate.

[1] = any patients treated with palazestrant

CCCN1CC(Oc2ccc([C@@H]3c4[nH]c5ccccc5c4C[C@@H](C)N3CC(C)(C)F)cc2)C1 [palazestrant, Palazestrant]
TRAE nausea, any grade (120 mg/day (n = 86)): 54.7%
TRAE neutropenia, any grade (120 mg/day (n = 86)): 20.9%
TRAE vomiting, any grade (120 mg/day (n = 86)): 24.4%
grade 3 TRAE fatigue (120 mg/day (n = 86)): 2.3%
grade 3 TRAE nausea (120 mg/day (n = 86)): 3.5%
grade 3 TRAE neutropenia (120 mg/day (n = 86)): 3.5%
grade 3 TRAE vomiting (120 mg/day (n = 86)): 2.3%
grade 4 TEAE acute respiratory failure (120 mg/day (n = 86)): 1 patients
grade 4 TEAE neutropenia (120 mg/day (n = 86)): 6 patients
grade ≥ 3 TEAE neutropenia (120 mg/day (n = 86)): 10.5%
patients with 3 grade 4 events (pulmonary embolism, diverticulitis, acute left ventricular failure) (120 mg/day (n = 86)): 1 patient
patients with Grade 3 TEAEs (120 mg/day (n = 86)): 24.4%
patients with Grade 3 treatment-related events (120 mg/day (n = 86)): 11.6%
patients with grade 4 TEAEs (120 mg/day (n = 86)): 9.3%
patients with ≥ 1 TEAE of any grade (120 mg/day (n = 86)): 95.3%
Treatment-related grade 4 neutropenia (120 mg/day (n = 86), 5 patients): 5.8% and 6%
time of grade 4 neutropenia events after initiation of palazestrant (120 mg/day, approximately): 6-8 weeks
treatment discontinuation due to AEs (60 or 120 mg/day (n = 116)): 6.0%
severity of most TEAEs (RP2D of 120 mg/day): grade 1–2; also recorded: grade 1 or 2
severity of the majority of TRAEs (RP2D of 120 mg/day): grade 1 or 2
TEAE bradycardia (RP2D, 120 mg/day): 9%
TEAE photopsia (RP2D, 120 mg/day): 5%
grade of all bradycardia and photopsia events (RP2D, 120 mg/day): grade 1
treatment-related diarrhea of any grade (RP2D, 120 mg/day): 13%
treatment-related diarrhea, grade ≥ 3 (RP2D, 120 mg/day): no grade ≥ 3 events
severity of the majority of TEAEs (all dose-escalation cohorts (30 to 300 mg)): grade 1 or 2
QTcF values [1]: ≤ 500 ms
changes in QTcF [1]: no clinically significant changes
discontinuations due to AEs assessed as related to palazestrant (of seven patients who discontinued due to AEs): 5 patients
neutropenia resolved upon treatment discontinuation (of the 5 patients with treatment-related grade 4 neutropenia, 120 mg/day): 2 patients
grade 4 neutropenia resolved following discontinuation of palazestrant (of the 6 patients with grade 4 neutropenia): 3 patients
TEAE Constipation, Toxicity Grade All (phase 1a, 30 mg (N=5)): 1 (20.0)
TEAE Constipation, Toxicity Grade G3 (phase 1a, 30 mg (N=5)): 0
TEAE Constipation, Toxicity Grade G4 (phase 1a, 30 mg (N=5)): 0
TEAE Decreased appetite, Toxicity Grade All (phase 1a, 30 mg (N=5)): 1 (20.0)
TEAE Decreased appetite, Toxicity Grade G3 (phase 1a, 30 mg (N=5)): 0
TEAE Decreased appetite, Toxicity Grade G4 (phase 1a, 30 mg (N=5)): 0
TEAE Diarrhea, Toxicity Grade All (phase 1a, 30 mg (N=5)): 2 (40.0)
TEAE Diarrhea, Toxicity Grade G3 (phase 1a, 30 mg (N=5)): 0
TEAE Diarrhea, Toxicity Grade G4 (phase 1a, 30 mg (N=5)): 0
TEAE Fatigue, Toxicity Grade All (phase 1a, 30 mg (N=5)): 2 (40.0)
TEAE Fatigue, Toxicity Grade G3 (phase 1a, 30 mg (N=5)): 0
TEAE Fatigue, Toxicity Grade G4 (phase 1a, 30 mg (N=5)): 0
TEAE Headache, Toxicity Grade All (phase 1a, 30 mg (N=5)): 1 (20.0)
TEAE Headache, Toxicity Grade G3 (phase 1a, 30 mg (N=5)): 0
TEAE Headache, Toxicity Grade G4 (phase 1a, 30 mg (N=5)): 0
TEAE Maculopapular rash, Toxicity Grade All (phase 1a, 30 mg (N=5)): 1 (20.0)
TEAE Maculopapular rash, Toxicity Grade G3 (phase 1a, 30 mg (N=5)): 0
TEAE Maculopapular rash, Toxicity Grade G4 (phase 1a, 30 mg (N=5)): 0
TEAE Nausea, Toxicity Grade All (phase 1a, 30 mg (N=5)): 2 (40.0)
TEAE Nausea, Toxicity Grade G3 (phase 1a, 30 mg (N=5)): 0
TEAE Nausea, Toxicity Grade G4 (phase 1a, 30 mg (N=5)): 0
TEAE Neutropenia, Toxicity Grade G3 (phase 1a, 30 mg (N=5)): 0
TEAE Neutropenia, Toxicity Grade G4 (phase 1a, 30 mg (N=5)): 1 (20.0)
TEAE Vomiting, Toxicity Grade All (phase 1a, 30 mg (N=5)): 1 (20.0)
TEAE Vomiting, Toxicity Grade G3 (phase 1a, 30 mg (N=5)): 0
TEAE Vomiting, Toxicity Grade G4 (phase 1a, 30 mg (N=5)): 0
TEAE Neutropenia, Toxicity Grade All (phase 1a, 30 mg (N=5), includes neutropenia and neutrophil count decreased): 1 (20.0)
TEAE Constipation, Toxicity Grade All (phase 1a, 60 mg (N=6)): 1 (16.7)
TEAE Constipation, Toxicity Grade G3 (phase 1a, 60 mg (N=6)): 0
TEAE Constipation, Toxicity Grade G4 (phase 1a, 60 mg (N=6)): 0
TEAE Decreased appetite, Toxicity Grade All (phase 1a, 60 mg (N=6)): 0
TEAE Decreased appetite, Toxicity Grade G3 (phase 1a, 60 mg (N=6)): 0
TEAE Decreased appetite, Toxicity Grade G4 (phase 1a, 60 mg (N=6)): 0
TEAE Diarrhea, Toxicity Grade All (phase 1a, 60 mg (N=6)): 2 (33.3)
TEAE Diarrhea, Toxicity Grade G3 (phase 1a, 60 mg (N=6)): 0
TEAE Diarrhea, Toxicity Grade G4 (phase 1a, 60 mg (N=6)): 0
TEAE Fatigue, Toxicity Grade All (phase 1a, 60 mg (N=6)): 3 (50.0)
TEAE Fatigue, Toxicity Grade G3 (phase 1a, 60 mg (N=6)): 0
TEAE Fatigue, Toxicity Grade G4 (phase 1a, 60 mg (N=6)): 0
TEAE Headache, Toxicity Grade All (phase 1a, 60 mg (N=6)): 1 (16.7)
TEAE Headache, Toxicity Grade G3 (phase 1a, 60 mg (N=6)): 0
TEAE Headache, Toxicity Grade G4 (phase 1a, 60 mg (N=6)): 0
TEAE Maculopapular rash, Toxicity Grade All (phase 1a, 60 mg (N=6)): 1 (16.7)
TEAE Maculopapular rash, Toxicity Grade G3 (phase 1a, 60 mg (N=6)): 0
TEAE Maculopapular rash, Toxicity Grade G4 (phase 1a, 60 mg (N=6)): 0
TEAE Nausea, Toxicity Grade All (phase 1a, 60 mg (N=6)): 2 (33.3)
TEAE Nausea, Toxicity Grade G3 (phase 1a, 60 mg (N=6)): 0
TEAE Nausea, Toxicity Grade G4 (phase 1a, 60 mg (N=6)): 0
TEAE Neutropenia, Toxicity Grade G3 (phase 1a, 60 mg (N=6)): 0
TEAE Neutropenia, Toxicity Grade G4 (phase 1a, 60 mg (N=6)): 0
TEAE Vomiting, Toxicity Grade All (phase 1a, 60 mg (N=6)): 1 (16.7)
